The values below come from US20250129027A1 (APOGEE PHARMACEUTICALS, INC., priority 2023, published 2025).

In one experiment the target is human recombinant MAGL (Homo sapiens (Human), UniProt Q99685). Nature of the experiment: In vitro inhibition of MAGL activity (inhibitor screening kit, 4-nitrophenylacetate). It is filed as biochemical. The following applies: human recombinant MAGL. An outline of the steps: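 Colorimetric kit assay: recombinant human MAGL hydrolyses 4-nitrophenylacetate to 4-nitrophenol, read by absorbance at 405-412 nm. Inhibition given as percentage of signal in treated versus untreated MAGL control.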
Sequence of human recombinant MAGL (Q99685 whole entry): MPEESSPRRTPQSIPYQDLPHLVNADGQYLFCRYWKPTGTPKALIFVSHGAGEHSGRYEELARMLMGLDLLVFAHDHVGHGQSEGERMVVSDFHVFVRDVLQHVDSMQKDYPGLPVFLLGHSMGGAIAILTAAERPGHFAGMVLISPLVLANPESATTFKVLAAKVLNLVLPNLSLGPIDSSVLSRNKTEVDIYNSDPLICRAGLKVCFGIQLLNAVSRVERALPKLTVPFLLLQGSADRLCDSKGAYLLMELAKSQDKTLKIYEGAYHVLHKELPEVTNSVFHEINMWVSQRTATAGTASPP

For a further experiment, the target named is human recombinant FAAH (Homo sapiens (Human), UniProt O00519). Description: In vitro inhibition of FAAH activity (fluorescent inhibitor screening kit, AMC arachidonoyl amide). Type of experiment: biochemical. The following applies: human recombinant FAAH; read-out: Inhibition on FAAH activity (IC50). The gist of the method:
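Fluorogenic kit assay: AMC arachidonoyl amide is cleaved by human recombinant FAAH, read at 340-360/450-465 nm. Percent inhibition versus non-treated control; IC50 values derived from multiple compound concentrations where tested.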

Where only a bound is given, the exact number is not on record here.

Sequence of human recombinant FAAH (O00519 whole entry): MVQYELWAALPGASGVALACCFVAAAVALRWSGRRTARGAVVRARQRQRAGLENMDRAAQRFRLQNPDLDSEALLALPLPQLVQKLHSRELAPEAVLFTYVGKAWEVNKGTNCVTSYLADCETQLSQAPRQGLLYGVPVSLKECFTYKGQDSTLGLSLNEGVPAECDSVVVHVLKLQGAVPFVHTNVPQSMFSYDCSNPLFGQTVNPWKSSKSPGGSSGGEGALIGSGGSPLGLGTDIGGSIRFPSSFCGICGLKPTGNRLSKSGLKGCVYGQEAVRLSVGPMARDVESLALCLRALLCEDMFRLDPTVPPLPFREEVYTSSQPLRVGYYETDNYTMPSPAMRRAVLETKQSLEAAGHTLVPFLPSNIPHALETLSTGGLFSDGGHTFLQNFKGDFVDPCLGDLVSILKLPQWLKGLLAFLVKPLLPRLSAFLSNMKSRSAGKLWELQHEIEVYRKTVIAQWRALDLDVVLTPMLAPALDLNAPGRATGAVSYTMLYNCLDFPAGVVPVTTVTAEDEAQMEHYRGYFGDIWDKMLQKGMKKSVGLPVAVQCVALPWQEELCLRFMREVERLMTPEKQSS

By IC50 is commonly meant the concentration at which inhibition is half-maximal. With `CCCCCCCCNC(=O)Oc1ccc(OC)c(-c2cncc(-c3ccno3)c2)c1` [Example 109, 3-(5-(isoxazol-5-yl)pyridin-3-yl)-4-methoxyphenyl octylcarbamate], the IC50 was ~10 µM on human recombinant MAGL and 0.001 to 0.01 µM at human recombinant FAAH.
As to `CSc1ccc(OC(=O)NC2CCCCC2)cc1-c1cncc(-c2nnco2)c1` [Example 190, 3-(5-(1,3,4-oxadiazol-2-yl)pyridin-3-yl)-4-(methylthio)phenyl cyclohexylcarbamate], the IC50 at human recombinant MAGL was > 10 µM; at human recombinant FAAH it was 0.1 to 1 µM.
Take `CCCCCCCCNC(=O)Oc1cc(-c2cncc(-c3ncco3)c2)ccc1OC` [Example 84, 2-methoxy-5-(5-(oxazol-2-yl)pyridin-3-yl)phenyl octylcarbamate]: the IC50 at human recombinant MAGL is ~10 µM; at human recombinant FAAH, 0.1 to 1 µM.
As to `CCCCCCCCNC(=O)Oc1ccc(OC(F)(F)F)c(-c2cncc(-c3nnco3)c2)c1` [Example 199, 3-(5-(1,3,4-oxadiazol-2-yl)pyridin-3-yl)-4-(trifluoromethoxy)phenyl octylcarbamate], the figures for the IC50 at human recombinant MAGL and on human recombinant FAAH were 1 to 10 µM and 0.01 to 0.1 µM, respectively.
Regarding `O=C(NC1CCCC1)Oc1cccc(-c2cncc(-c3nnn[nH]3)c2)c1` [Example 241, 3-(5-(1H-tetrazol-5-yl)pyridin-3-yl)phenyl cyclopentylcarbamate], the IC50 was > 10 µM on human recombinant MAGL and > 1 µM on human recombinant FAAH.
For the molecule `O=C(NC1CCCC1)Oc1ccc(O)c(-c2cncc(-c3nnn[nH]3)c2)c1` [Example 247, 3-(5-(1H-tetrazol-5-yl)pyridin-3-yl)-4-hydroxyphenyl cyclopentylcarbamate], the IC50 at human recombinant MAGL was > 10 µM; on human recombinant FAAH it was > 1 µM.
On to `O=C(NCc1ccccc1)Oc1cccc(-c2cncc(-c3ccc[nH]3)c2)c1` [Example 37, 3-(5-(1H-pyrrol-2-yl)pyridin-3-yl)phenyl benzylcarbamate], for which the IC50 at human recombinant MAGL is > 10 µM; at human recombinant FAAH, ~1 µM.
`O=C(NCc1ccccc1)Oc1ccc(O)c(-c2cncc(-c3nnn[nH]3)c2)c1` [Example 246, 3-(5-(1H-tetrazol-5-yl)pyridin-3-yl)-4-hydroxyphenyl benzylcarbamate]: the IC50 at human recombinant MAGL is > 10 µM; on human recombinant FAAH, > 1 µM.
As to `O=C(NC1CCCCCC1)Oc1cccc(-c2cncc(-c3nncs3)c2)c1` [Example 212, 3-(5-(1,3,4-thiadiazol-2-yl)pyridin-3-yl)phenyl cycloheptylcarbamate], the IC50 at human recombinant MAGL was > 10 µM; on human recombinant FAAH it was 0.01 to 0.1 µM.
Regarding `CC1CCC(NC(=O)Oc2ccc(F)c(-c3cncc(-c4ncco4)c3)c2)CC1` (stereo not drawn) [Example 86, 4-fluoro-3-(5-(oxazol-2-yl)pyridin-3-yl)phenyl (4-methylcyclohexyl)carbamate], the 50% inhibitory concentration (IC50) is > 10 µM at human recombinant MAGL and 0.01 to 0.1 µM on human recombinant FAAH.
For `O=C(NC1CCCC1)Oc1cccc(-c2cncc(-c3ncco3)c2)c1` [Example 75, 3-(5-(oxazol-2-yl)pyridin-3-yl)phenyl cyclopentylcarbamate], the IC50 was > 10 µM at human recombinant MAGL and 0.01 to 1 µM on human recombinant FAAH.
As for `CCCCCCCCCCCCCCNC(=O)Oc1cccc(-c2cncc(C(=O)OCC)c2)c1` [Example 4, ethyl 5-(3-((tetradecylcarbamoyl)oxy)phenyl)nicotinate], the IC50 at human recombinant MAGL was in the range of 1 to 10 µM; at human recombinant FAAH, 0.001 to 0.01 µM.
Turning to `COc1ccc(OC(=O)NC2CCCCC2)cc1-c1cncc(-c2nnco2)c1` [Example 170, 3-(5-(1,3,4-oxadiazol-2-yl)pyridin-3-yl)-4-methoxyphenyl cyclohexylcarbamate], the figures for the IC50 at human recombinant MAGL and at human recombinant FAAH were ~10 µM and 0.1 to 1 µM, respectively.
On to `COc1ccc(OC(=O)NC2CCCCCC2)cc1-c1cncc(-c2cccs2)c1` [Example 70, 4-methoxy-3-(5-(thiophen-2-yl)pyridin-3-yl)phenyl cycloheptylcarbamate], for which the IC50 at human recombinant MAGL is > 10 µM; at human recombinant FAAH, 0.1 to 1 µM.
Turning to `CCCCCCCCNC(=O)Oc1cc(F)cc(-c2cncc(-c3nnco3)c2)c1` [Example 195, 3-(5-(1,3,4-oxadiazol-2-yl)pyridin-3-yl)-5-fluorophenyl octylcarbamate], the figures for the IC50 at human recombinant MAGL and at human recombinant FAAH were ~1 µM and 0.001 to 0.01 µM, respectively.
`CCCCCCCCNC(=O)Oc1cccc(-c2cncc(C(=O)NN)c2)c1` [Example 25, 3-(5-(hydrazinecarbonyl)pyridin-3-yl)phenyl octylcarbamate]: the IC50 at human recombinant MAGL is > 10 µM; on human recombinant FAAH it was > 1 µM.
`CC1CCC(NC(=O)Oc2cccc(-c3cc(-c4nnco4)ccn3)c2)CC1` (stereo not drawn) [Example 261, 3-(4-(1,3,4-oxadiazol-2-yl)pyridin-2-yl)phenyl (4-methylcyclohexyl)carbamate]: the values for the IC50 on human recombinant MAGL and at human recombinant FAAH were > 1 µM and 0.1 to 1 µM, respectively.
Take `COc1ccc(OC(=O)NCC2CCCCC2)cc1-c1cncc(-c2ccc[nH]2)c1` [Example 42, 3-(5-(1H-pyrrol-2-yl)pyridin-3-yl)-4-methoxyphenyl (cyclohexylmethyl)carbamate]: the IC50 is ~10 µM at human recombinant MAGL and 0.1 to 1 µM at human recombinant FAAH.
“3-(5-(1,3,4-oxadiazol-2-yl)134 pyridine-3-yl)phenyl heptylcarbamate [Example 129]”: the IC50 at human recombinant MAGL is > 10 µM; on human recombinant FAAH, 0.001 to 0.01 µM.
For `COc1ccc(OC(=O)NC2CCCCC2)cc1-c1cncc(-c2ccco2)c1` [Example 57, 3-(5-(furan-2-yl)pyridin-3-yl)-4-methoxyphenyl cyclohexylcarbamate], the IC50 at human recombinant MAGL is > 10 µM; on human recombinant FAAH, 0.1 to 1 µM.
For `COc1ccc(OC(=O)NCc2ccccc2)cc1-c1cncc(-c2ccno2)c1` [Example 111, 3-(5-(isoxazol-5-yl)pyridin-3-yl)-4-methoxyphenyl benzylcarbamate] the same measures were > 10 µM and 0.1 to 1 µM.
On to `COc1ccc(OC(=O)NCc2ccccc2)cc1-c1cncc(-c2ncn[nH]2)c1` [Example 234, 3-(5-(1H-1,2,4-triazol-5-yl)pyridin-3-yl)-4-methoxyphenyl benzyl carbamate], for which the IC50 at human recombinant MAGL is > 10 µM; on human recombinant FAAH, > 1 µM.
For `O=C(Oc1cccc(-c2cncc(-c3nnco3)c2)c1)N1CC2(COC2)C1` [Example 152, 3-(5-(1,3,4-oxadiazol-2-yl)pyridin-3-yl)phenyl 2-oxa-6-azaspiro[3.3]heptane-6-carboxylate] the same measures were > 10 µM and > 1 µM.
For `CSc1ccc(OC(=O)NC2CCCC2)cc1-c1cncc(-c2nnco2)c1` [Example 189, 3-(5-(1,3,4-oxadiazol-2-yl)pyridin-3-yl)-4-(methylthio)phenyl cyclopentylcarbamate] the same measures were > 10 µM and 0.1 to 1 µM.
In the case of `COc1ccc(OC(=O)NC2CCCCCC2)cc1-c1cncc(-c2ccc[nH]2)c1` [Example 46, 3-(5-(1H-pyrrol-2-yl)pyridin-3-yl)-4-methoxyphenyl cycloheptylcarbamate], the IC50 at human recombinant MAGL is > 10 µM; at human recombinant FAAH it was 0.1 to 1 µM.
With `CCCCCCCCNC(=O)Oc1cccc(-c2cncc(-c3ccno3)c2)c1` [Example 105, 3-(5-(isoxazol-5-yl)pyridin-3-yl)phenyl octylcarbamate], the IC50 at human recombinant MAGL was > 10 µM; on human recombinant FAAH, 0.001 to 0.01 µM.
The like results for `COc1ccc(OC(=O)NCC2CCCCC2)cc1-c1cncc(-c2cccs2)c1` [Example 66, 4-methoxy-3-(5-(thiophen-2-yl)pyridin-3-yl)phenyl (cyclohexylmethyl)carbamate] were, in that order, ~10 µM and 0.1 to 1 µM.
